# Experimental data from ChEMBL document CHEMBL3882242, “Synthesis and biological evaluation of analogs of the antimitotic marine natural product curacin A” (2002).
# Active and inactive are the calls of the source. The calls are words filed in the database; no cut-off is given here.
# Tests used:
# [1] = Growth inhibition of human MDA-MB-231 cells incubated for 48 hrs by MTS assay; format: functional; conditions: MDA-MB-231, 48 h
# [2] = Growth inhibition of human PC3 cells incubated for 48 hrs by MTS assay; format: functional; conditions: PC-3, 48 h
# [3] = Growth inhibition of human 2008 cells incubated for 48 hrs by MTS assay; format: functional; conditions: Homo sapiens, 2008, 48 h
# [4] = Growth inhibition of human MDA-MB-231 cells incubated for 96 hrs by MTS assay; format: functional; conditions: MDA-MB-231, 96 h
# [5] = Growth inhibition of human PC3 cells incubated for 96 hrs by MTS assay; format: functional; conditions: PC-3, 96 h
# [6] = Growth inhibition of human 2008 cells incubated for 96 hrs by MTS assay; format: functional; conditions: Homo sapiens, 2008, 96 h
# Tubulin (Bos taurus) [7] = target: T1, Tubulin (Bos taurus) (UniProt Q6B856+Q862L2+Q862F3); assay: Inhibition of [3H]colchicin binding to bovine brain tubulin incubated at 5 uM and 30 degreeC for 10 mins in presence of GTP by scintillation spectroscopic method
# Tubulin (Bos taurus) [8] = target: T1, Tubulin (Bos taurus); assay: Inhibition of [3H]colchicin binding to bovine brain tubulin incubated at 50 uM and 30 degreeC for 10 mins in presence of GTP by scintillation spectroscopic method
# Tubulin (Bos taurus) [9] = target: T1, Tubulin (Bos taurus); assay: Inhibition of [3H]colchicine binding to bovine brain tubulin at 5 uM relative to control
# Tubulin (Bos taurus) [10] = target: T1, Tubulin (Bos taurus); assay: Inhibition of [3H]colchicine binding to bovine brain tubulin at 50 uM relative to control
# Tubulin (Bos taurus) [11] = target: T1, Tubulin (Bos taurus); assay: Inhibition of GTP/glutamate-induced bovine brain tubulin polymerization at 5 uM by […]
# MCF7 [12] = assay: Antimitotic activity in human MCF7 cells assessed as increase in mitotic index at 7.8 to 1000 nM measured after 14 to 16 hrs by immunohistochemical analysis; format: functional, cell-based
# MCF7 [13] = assay: Antimitotic activity in human MCF7 cells assessed as chromatin condensation at 7.8 to 1000 nM measured after 14 to 16 hrs by immunohistochemical analysis; format: functional, cell-based
# MCF7 [14] = assay: Antimitotic activity in human MCF7 cells assessed as increase in core histone phosphorylation at 7.8 to 1000 nM measured after 14 to 16 hrs by immunohistochemical analysis; format: functional, cell-based
# MCF7 [15] = assay: Antimitotic activity in human MCF7 cells assessed as induction of cell rounding at 7.8 to 1000 nM measured after 14 to 16 hrs by immunohistochemical analysis; format: functional, cell-based
# MCF7 [16] = assay: Antimitotic activity in human MCF7 cells assessed as disruption of microtubules at 7.8 to 1000 nM measured after 14 to 16 hrs by immunohistochemical analysis; format: functional, cell-based
compound,measurement,setting,value
COc1cc(/C=N\OC[C@@H]2C[C@H]2CCC(C)c2cccs2)cc(OC)c1OC (stereo not given in full),GI50,[1],> 50000 nM
same,GI50,[2],> 50000 nM
same,GI50,[3],> 50000 nM
same,GI50,[4],> 50000 nM
same,GI50,[5],> 50 µM
same,GI50,[6],> 50000 nM
same,inhibition,Tubulin (Bos taurus) [7],-10%
same,inhibition,Tubulin (Bos taurus) [8],18%
C=CC[C@@H](CC/C(C)=C/C=C/CC/C=C\[C@@H]1COC(/C=C/c2ccccc2)=N1)OC,inhibition,Tubulin (Bos taurus) [7],9%
COc1cc(/C=C\CC/C=C/C=C(\C)CCC(O)c2cc3ccccc3o2)cc(OC)c1OC (stereo not given),GI50,[1],86 to 120 nM
same,GI50,[2],310 to 596 nM
same,inhibition,Tubulin (Bos taurus) [9],12.5%
same,inhibition,Tubulin (Bos taurus) [10],68.7%
same,inhibition,Tubulin (Bos taurus) [11],74.6%
same,GI50,[4],204 nM
same,GI50,[5],1.12 µM
same,GI50,[6],199 nM
COc1cc(/C=N\OC/C=C/C=C(\C)CCC(O)c2cccs2)cc(OC)c1OC (stereo not given),inhibition,Tubulin (Bos taurus) [11],100%
same,inhibition,Tubulin (Bos taurus) [8],57%
COc1cc(/C=C\CC/C=C/C=C(\C)CCC(O)c2cccs2)cc(OC)c1OC (stereo not given),Activity,MCF7 [12],Active
same,GI50,[1],151 to 280 nM
same,GI50,[2],366 to 380 nM
same,GI50,[3],280 to 311 nM
same,inhibition,Tubulin (Bos taurus) [9],9.9%
same,inhibition,Tubulin (Bos taurus) [10],59%
same,inhibition,Tubulin (Bos taurus) [11],> 100%
same,GI50,[4],214 nM
same,GI50,[5],1.02 µM
COc1cc(/C=N\OC[C@H]2C[C@@H]2[C@@H]2C[C@]2(C)CCC(O)c2cccs2)cc(OC)c1OC (stereo not given in full),GI50,[1],980 nM
same,GI50,[2],1200 nM
same,GI50,[3],9900 nM
same,inhibition,Tubulin (Bos taurus) [11],26%
same,GI50,[4],15000 nM
same,GI50,[5],8.8 µM
same,GI50,[6],39000 nM
same,inhibition,Tubulin (Bos taurus) [7],-9%
same,inhibition,Tubulin (Bos taurus) [8],-1%
COc1cc(/C=C\CC/C=C/C=C(\C)CCC(O)c2ccco2)cc(OC)c1OC (stereo not given),Activity,MCF7 [12],Active
C=CC[C@@H](CC/C(C)=C/C=C/CC/C=C\c1csc(C(C)(C)C)n1)OC,inhibition,Tubulin (Bos taurus) [11],100%
same,inhibition,Tubulin (Bos taurus) [7],38%
same,inhibition,Tubulin (Bos taurus) [8],43%
C=CC[C@@H](CC/C(C)=C/C=C/CC/C=C\[C@@H]1CSC([C@@H]2C[C@@H]2C)=N1)OC [CURACIN A],GI50,[1],96 to 186 nM
same,inhibition,Tubulin (Bos taurus) [9],84.9 to 95%
same,inhibition,Tubulin (Bos taurus) [10],96.2 to 97.7%
same,inhibition,Tubulin (Bos taurus) [11],97.9 to 98%
COc1ccc(/C=C\CC/C=C/C=C(\C)CCC(O)c2ccccc2OC)c(OC)c1 (stereo not given),GI50,[1],> 50000 nM
same,GI50,[2],> 50000 nM
same,GI50,[5],> 50 µM
C=CC[C@@H](CC/C(C)=C/C=C/CC/C=C\[C@@H]1CSC(C(C)(C)C)=N1)OC,inhibition,Tubulin (Bos taurus) [11],100%
same,inhibition,Tubulin (Bos taurus) [7],35%
same,inhibition,Tubulin (Bos taurus) [8],63%
C=CC[C@@H](CC/C(C)=C/C=C/CC/C=C\[C@@H]1COC(C(C)(C)C)=N1)OC,inhibition,Tubulin (Bos taurus) [11],0%
same,inhibition,Tubulin (Bos taurus) [7],14%
same,inhibition,Tubulin (Bos taurus) [8],80%
C=CC[C@@H](CC[C@@]1(C)C[C@H]1[C@H]1C[C@@H]1CC/C=C\[C@@H]1CSC([C@@H]2C[C@@H]2C)=N1)OC,GI50,[1],> 50000 nM
same,GI50,[2],> 50000 nM
same,GI50,[3],> 50000 nM
same,inhibition,Tubulin (Bos taurus) [11],0%
same,GI50,[4],> 50000 nM
same,GI50,[5],> 50 µM
same,GI50,[6],> 50000 nM
same,inhibition,Tubulin (Bos taurus) [7],9%
COc1ccc(/C=C\CC/C=C/C=C(\C)CCC(O)c2cc3ccccc3s2)c(OC)c1 (stereo not given),GI50,[1],> 50000 nM
same,GI50,[2],> 50000 nM
same,inhibition,Tubulin (Bos taurus) [10],< 26.4%
same,GI50,[5],> 50 µM
COc1ccc(/C=C\CC/C=C/C=C(\C)CCC(O)c2ccco2)c(OC)c1 (stereo not given),GI50,[2],> 50000 nM
same,GI50,[5],> 50 µM
C=CC[C@@H](CC/C(C)=C/C=C/CC/C=C\c1coc(C(C)(C)C)n1)OC,GI50,[5],> 50 µM
same,GI50,[6],> 50000 nM
same,inhibition,Tubulin (Bos taurus) [7],7%
same,inhibition,Tubulin (Bos taurus) [8],7%
COc1ccc(OC)c(C(O)CC/C(C)=C/C=C/CC/C=C\c2cc(OC)c(OC)c(OC)c2)c1 (stereo not given),inhibition,Tubulin (Bos taurus) [9],0.7%
same,inhibition,Tubulin (Bos taurus) [10],20.3%
same,inhibition,Tubulin (Bos taurus) [11],3.5%
same,GI50,[4],8730 nM
COc1ccccc1C(O)CC/C(C)=C/C=C/CC/C=C\c1cc(OC)c(OC)c(OC)c1 (stereo not given),Activity,MCF7 [12],Active
same,GI50,[1],243 to 340 nM
same,GI50,[2],620 to 933 nM
same,GI50,[3],314 to 330 nM
same,inhibition,Tubulin (Bos taurus) [9],5%
same,inhibition,Tubulin (Bos taurus) [10],73%
same,inhibition,Tubulin (Bos taurus) [11],> 100%
same,GI50,[4],221 nM
same,GI50,[6],268 nM
COc1cc(/C=C\CC/C=C/C=C(\C)CCC(O)c2cc3ccccc3s2)cc(OC)c1OC (stereo not given),Activity,MCF7 [12],Active
same,GI50,[1],83 to 230 nM
same,GI50,[2],620 to 875 nM
same,GI50,[3],360 to 380 nM
same,inhibition,Tubulin (Bos taurus) [9],30.2%
same,inhibition,Tubulin (Bos taurus) [11],> 100%
same,GI50,[4],1280 nM
same,GI50,[5],1.22 µM
same,GI50,[6],235 nM
same,Activity,MCF7 [13],Active
same,Activity,MCF7 [14],Active
same,Activity,MCF7 [15],Active
same,Activity,MCF7 [16],Active
COc1ccc(/C=C\CC/C=C/C=C(\C)CCC(O)c2cc(OC)ccc2OC)c(OC)c1 (stereo not given),GI50,[2],> 50000 nM
same,GI50,[5],> 50 µM
